# Source: paper PMC3578047 (European journal of pharmacology, 2012)
# Structures can show the parent of a compound that is named as a salt.
# Key:
# naive rats [1] = test: von Frey assay in the absence of a pain state; assay type: in vivo, rat; conditions: for mechanical withdrawal thresholds in naive rats: 3 mg/kg
# naive rats [2] = test: rotorod motor skill test; conditions: 3 mg/kg
# [3] = test system: streptozocin induced type I diabetic neuropathic pain (mechanical allodynia); assay type: in vivo, rat; conditions: for anti-allodynic effect over the time course versus vehicle: 15 min to 6 h; for effect on neuropathic allodynia versus vehicle: 10 mg/kg s.c., over 6 h time course
# [4] = test system: lipopolysaccharide induced inflammatory pain (mechanical allodynia); assay type: in vivo, rat; conditions: for effect on lipopolysaccharide induced allodynia over the dose range: s.c. 60 min prior to lipopolysaccharide, at 2 h
# human sEH = conditions: read-out: IC50 Human, fluorescent assay, ref Hwang 2007; cited from earlier work
# [5] = plasma pharmacokinetics in rat; assay type: in vivo; conditions: low dose, mean plasma AUC (S2)
# [6] = cynomolgus monkey; ref Ulu et al., 2011; cited from earlier work
# experimental logP = conditions: determined experimentally as described by Tsai et al. 2010
# [7] = test system: plasma epoxyeicosatrienoic acids, dihydroxyeicosatrienoic acids, PGE2 and PGD2; test: plasma oxylipin analysis in the inflammatory pain model; assay type: in vivo, rat; conditions: 2 h post lipopolysaccharide
# [8] = ref Liu et al., 2009; cited from earlier work
# [9] = ref Liu 2009; cited from earlier work
# [10] = 3 mg/kg s.c. 60 min prior to lipopolysaccharide
smiles,measurement,setting,value
"CN1CC[C@]23c4c5ccc(O)c4O[C@H]2[C@@H](O)C=C[C@H]3[C@H]1C5 [morphine, Morphine sulfate, reference compound]",mechanical withdrawal thresholds in naive rats,naive rats [1],significant increase in mechanical withdrawal thresholds
same,rotorod performance versus vehicle controls,naive rats [2],no significant effect on rotorod performance
"O=C(NC12CC3CC(CC(C3)C1)C2)N[C@H]1CC[C@H](Oc2ccc(C(=O)O)cc2)CC1 [t-AUCB, trans-4-[4-(3-adamantan-1-yl-ureido)-cyclohexyloxy]-benzoic acid]",anti-allodynic effect over the time course versus vehicle,"[3]; 3 mg/kg s.c., diabetic rats",significant versus vehicle control over the time course but overall the effect was brief
same,only dose with significant anti-allodynic effect,"[3]; s.c., dose range 1-100 mg/kg, at 2 h",100 mg/kg
same,effect over the time course versus vehicle control,[4]; [10],lacked a significance versus vehicle control over the time course
same,effect on lipopolysaccharide induced allodynia over the dose range,[4],significantly blocked pain related behavior only at the two highest doses 30 and 100 mg/kg
"O=C(Nc1cccc(OC(F)(F)F)c1)N[C@H]1CC[C@H](Oc2ccc(C(=O)O)cc2)CC1 [t-TUCB, trans-4-[4-(3-trifluoromethoxyphenyl-l-ureido)-cyclohexyloxy]-benzoic acid]",anti-allodynic effect over the time course versus vehicle,"[3]; 3 mg/kg s.c., diabetic rats",significantly effective versus vehicle control over the time course but was delayed and less active when compared to APAU
same,mechanical withdrawal thresholds,"[3]; 10 mg/kg, diabetic rats, early time points (Fig. S1, Table S3)",increased mechanical withdrawal thresholds to pre-diabetic pain free scores at early time points
same,"dose of maximal response, the only significant dose","[3]; s.c., dose range 0.1-100 mg/kg, at 3 h",10 mg/kg
same,overall pharmacokinetics in rats,[5],best overall pharmacokinetics at low dose
same,IC50,human sEH,0.9 nM
same,plasma protein binding,[6],99%
same,eLogP,experimental logP,1.6
"Cc1ccc(-c2cc(C(F)(F)F)nn2-c2ccc(S(N)(=O)=O)cc2)cc1 [celecoxib, reference compound]",effect on neuropathic allodynia versus vehicle,[3]; diabetic rats,no significant effect on the neuropathic allodynia
same,effect on lipopolysaccharide induced allodynia,"[4]; 10 mg/kg, 1 h prior to intraplantar lipopolysaccharide, over 6 h time course",marginal effect at the 3 hour time point
"CC(=O)N1CCC(NC(=O)NC23CC4CC(CC(C4)C2)C3)CC1 [APAU, 1-(1-acetypiperidin-4-yl)-3-adamantanylurea]",duration of anti-nociception,"[3]; 3 mg/kg s.c., diabetic rats",up to 5 h
same,time of first anti-allodynic effect,"[3]; 3 mg/kg s.c., diabetic rats",15 min
same,anti-allodynic effect over the time course versus vehicle,"[3]; 3 mg/kg s.c., diabetic rats",blocked allodynia by the first measurement at 15 minutes
same,effect on neuropathic allodynia versus vehicle,[3]; diabetic rats,significantly decreased allodynia
same,most effective dose against allodynia,"[3]; s.c., dose range 0.1-100 mg/kg, at 2 h",3 mg/kg
same,effect of oral gavage dose compared to s.c. dose,"[4]; 3 mg/kg oral gavage in PEG400, 1 h prior to lipopolysaccharide",equaled the maximal effect of the s.c. dose
same,earliest time point at which pain was blocked,[4]; [10],15 min
same,effect over the time course versus vehicle control,[4]; [10],significant versus vehicle control over the time course
same,effect on lipopolysaccharide induced allodynia over the dose range,[4],All doses of APAU except 0.1 mg/kg significantly blocked the lipopolysaccharide induced allodynia
same,mechanical withdrawal thresholds in naive rats,naive rats [1],showed no effect in the assay
same,nociceptive thresholds in absence of pain state versus vehicle,naive rats [1]; 100 mg/kg,did not significantly alter the nociceptive thresholds
same,plasma PGE2 and PGD2 versus lipopolysaccharide + vehicle,[7]; 3 mg/kg,reduced both prostaglandins significantly
same,plasma PGE2 and PGD2 versus lipopolysaccharide + vehicle,[7]; 100 mg/kg,did not significantly decrease PGE2 and PGD2 levels
same,sum dihydroxyeicosatrienoic acids in plasma versus vehicle controls,[7]; 3 and 100 mg/kg,significantly lowered dihydroxyeicosatrienoic acids
same,sum epoxyeicosatrienoic acids in plasma versus vehicle controls,[7]; 3 and 100 mg/kg,did not significantly alter sum epoxyeicosatrienoic acids levels
same,plasma half-life,[8],relatively short plasma half-life
same,Water Solubility,[9],310 ±60 mg/L^b
same,plasma protein binding,[6],35.5%
